Key:
[1] = target: T1, DNA damage-binding protein 1/Cyclin-dependent kinase 12/Cyclin-K (Homo sapiens, UniProt O75909+Q16531+Q9NYV4); assay: Molecular glue activity at human CDK12/CCNK (11 to 267 residues)/human DDB1-CUL4-RBX1 expressed in baculovirus expression system in human 293 TA cells assessed as CCNK protein degradation
[2] = target: T1, DNA damage-binding protein 1/Cyclin-dependent kinase 12/Cyclin-K; assay: Molecular glue activity at human CDK12 (715 to 1052 residues)/Cyclin K/human DDB1-[…]-RBX1 expressed in baculovirus expression system assessed as Cyclin K protein degradation

T1 sequence (O75909 whole entry, the tested form may be a part): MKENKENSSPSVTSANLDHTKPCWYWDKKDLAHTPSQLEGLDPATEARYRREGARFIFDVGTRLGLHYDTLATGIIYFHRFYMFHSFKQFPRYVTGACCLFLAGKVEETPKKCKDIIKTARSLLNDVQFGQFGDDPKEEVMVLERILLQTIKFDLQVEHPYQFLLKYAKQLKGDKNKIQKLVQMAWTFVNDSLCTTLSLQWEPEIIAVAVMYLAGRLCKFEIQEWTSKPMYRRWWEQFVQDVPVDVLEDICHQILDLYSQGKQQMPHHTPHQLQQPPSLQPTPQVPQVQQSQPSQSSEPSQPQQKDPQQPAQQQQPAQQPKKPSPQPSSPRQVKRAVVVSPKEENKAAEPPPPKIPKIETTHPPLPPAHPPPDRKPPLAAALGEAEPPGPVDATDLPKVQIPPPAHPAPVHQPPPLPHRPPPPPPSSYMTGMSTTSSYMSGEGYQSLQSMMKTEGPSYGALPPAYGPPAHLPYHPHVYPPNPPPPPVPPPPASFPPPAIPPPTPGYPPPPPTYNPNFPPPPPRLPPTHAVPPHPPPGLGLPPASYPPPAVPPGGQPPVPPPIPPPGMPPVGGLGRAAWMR
T1 sequence (Q9NYV4 whole entry, the tested form may be a part): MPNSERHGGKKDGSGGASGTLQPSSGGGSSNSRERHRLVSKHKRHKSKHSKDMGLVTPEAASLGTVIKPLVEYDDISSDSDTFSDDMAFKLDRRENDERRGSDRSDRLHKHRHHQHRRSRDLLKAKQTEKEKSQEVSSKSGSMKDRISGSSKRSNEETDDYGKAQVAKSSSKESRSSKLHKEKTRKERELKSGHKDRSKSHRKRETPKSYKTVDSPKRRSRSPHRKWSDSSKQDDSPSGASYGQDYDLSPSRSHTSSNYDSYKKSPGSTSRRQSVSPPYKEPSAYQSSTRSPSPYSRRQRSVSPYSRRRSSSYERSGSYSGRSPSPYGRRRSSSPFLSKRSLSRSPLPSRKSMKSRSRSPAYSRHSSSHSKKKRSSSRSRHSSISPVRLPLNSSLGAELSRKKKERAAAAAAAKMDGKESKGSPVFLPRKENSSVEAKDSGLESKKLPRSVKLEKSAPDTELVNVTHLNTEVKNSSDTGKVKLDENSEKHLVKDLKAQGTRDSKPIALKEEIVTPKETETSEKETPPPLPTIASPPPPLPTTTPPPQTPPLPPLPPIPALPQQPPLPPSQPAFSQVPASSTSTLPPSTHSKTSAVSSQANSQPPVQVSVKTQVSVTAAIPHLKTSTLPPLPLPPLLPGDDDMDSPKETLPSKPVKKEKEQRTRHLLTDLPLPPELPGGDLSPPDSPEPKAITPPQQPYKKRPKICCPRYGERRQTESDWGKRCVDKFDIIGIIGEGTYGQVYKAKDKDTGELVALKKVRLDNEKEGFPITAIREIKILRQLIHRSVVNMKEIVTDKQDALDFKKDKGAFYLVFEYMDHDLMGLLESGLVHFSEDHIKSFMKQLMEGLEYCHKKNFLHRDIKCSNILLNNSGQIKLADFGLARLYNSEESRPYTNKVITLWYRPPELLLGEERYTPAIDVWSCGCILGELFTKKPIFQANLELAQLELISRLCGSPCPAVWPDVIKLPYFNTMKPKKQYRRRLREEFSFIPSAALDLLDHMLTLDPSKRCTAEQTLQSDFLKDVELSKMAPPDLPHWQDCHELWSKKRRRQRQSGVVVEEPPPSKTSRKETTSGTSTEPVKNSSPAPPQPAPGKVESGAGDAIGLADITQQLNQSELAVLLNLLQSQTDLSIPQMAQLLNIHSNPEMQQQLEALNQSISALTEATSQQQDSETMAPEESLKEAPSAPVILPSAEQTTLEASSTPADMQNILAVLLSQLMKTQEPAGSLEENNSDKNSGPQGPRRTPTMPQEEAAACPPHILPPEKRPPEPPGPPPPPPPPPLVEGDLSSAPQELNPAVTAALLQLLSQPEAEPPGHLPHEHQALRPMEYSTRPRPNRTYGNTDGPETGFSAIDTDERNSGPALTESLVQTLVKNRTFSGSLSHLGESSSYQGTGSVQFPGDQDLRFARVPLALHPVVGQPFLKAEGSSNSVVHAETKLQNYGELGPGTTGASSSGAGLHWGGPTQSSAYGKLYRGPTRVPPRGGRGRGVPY
T1 sequence (Q16531 whole entry, the tested form may be a part): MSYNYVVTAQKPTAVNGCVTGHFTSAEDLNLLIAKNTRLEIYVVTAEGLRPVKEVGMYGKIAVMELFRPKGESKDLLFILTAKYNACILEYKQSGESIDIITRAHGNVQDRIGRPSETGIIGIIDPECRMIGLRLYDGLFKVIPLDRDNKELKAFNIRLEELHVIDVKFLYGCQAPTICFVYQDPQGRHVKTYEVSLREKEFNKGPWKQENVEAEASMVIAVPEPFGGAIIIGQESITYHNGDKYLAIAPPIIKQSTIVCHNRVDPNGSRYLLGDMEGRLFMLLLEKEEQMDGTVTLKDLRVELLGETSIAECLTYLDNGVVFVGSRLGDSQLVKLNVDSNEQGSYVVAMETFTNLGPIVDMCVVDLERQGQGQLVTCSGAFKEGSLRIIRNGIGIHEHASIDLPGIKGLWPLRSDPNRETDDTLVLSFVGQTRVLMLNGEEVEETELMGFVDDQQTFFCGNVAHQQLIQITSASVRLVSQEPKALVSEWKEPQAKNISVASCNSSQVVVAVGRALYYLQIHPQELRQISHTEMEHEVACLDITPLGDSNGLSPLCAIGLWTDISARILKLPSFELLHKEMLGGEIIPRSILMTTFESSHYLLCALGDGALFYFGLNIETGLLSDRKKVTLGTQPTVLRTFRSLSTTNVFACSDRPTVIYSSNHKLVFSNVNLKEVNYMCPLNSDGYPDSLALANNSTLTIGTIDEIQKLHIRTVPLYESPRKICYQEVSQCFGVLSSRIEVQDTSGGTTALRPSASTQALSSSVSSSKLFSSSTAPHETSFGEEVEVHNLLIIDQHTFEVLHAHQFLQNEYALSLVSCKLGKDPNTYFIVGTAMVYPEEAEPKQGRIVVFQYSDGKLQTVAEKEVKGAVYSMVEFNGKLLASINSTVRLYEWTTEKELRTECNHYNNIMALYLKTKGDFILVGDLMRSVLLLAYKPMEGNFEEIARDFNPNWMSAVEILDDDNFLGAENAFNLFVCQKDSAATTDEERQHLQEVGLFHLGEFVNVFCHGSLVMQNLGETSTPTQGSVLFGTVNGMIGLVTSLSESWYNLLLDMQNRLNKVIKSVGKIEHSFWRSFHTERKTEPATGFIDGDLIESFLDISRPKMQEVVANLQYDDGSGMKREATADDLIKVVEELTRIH

SMILES	EC50 [1]	EC50 [2]
Cc1cccc(Nc2nc(CC(=O)Nc3ncc(C)s3)cs2)n1	132 nM	461 nM
Cc1cnc(NC(=O)Cc2csc(Nc3cccc(CO)n3)n2)s1	41 nM	
